Data set [1] relates to 385 Escherichia coli and 126 Klebsiella pneumoniae isolates. As to the kind of experiment: MIC, MIC50 and MIC90 by reference broth microdilution against 511 UTI/bloodstream isolates (USA and Europe 2014-2015). In kind it is cell-based. The following applies: 511 isolates; for MIC90: read-out: MIC90; for EUCAST % I: EUCAST 2016 criteria. Background: Dilution methods test growth across graded concentrations, often in twofold steps.

Data set [2] deals with Escherichia coli isolates with an ESBL-phenotype. As to the kind of experiment: In vitro MIC90 of a panel of approved antibiotics, US surveillance program. It counts as cell-based.
Data set [3] has as its system Enterobacter aerogenes isolates. As to the kind of experiment: MIC of cephalosporins alone or with clavulanate/tazobactam. In kind it is cell-based. The note with it: Klebsiella aerogenes, clavulanate 2:1, tazobactam 4 μg/mL.
For data set [4], the system named is Klebsiella pneumoniae isolates. The description is as above. It counts as cell-based. The note with it: clavulanate 2:1, tazobactam 4 μg/mL.
In data set [5] the test system is Enterobacter cloacae isolates. The description is as above. In kind it is cell-based. The following applies: clavulanate 2:1, tazobactam 4 μg/mL.
The subject of data set [6] is Escherichia coli isolates. The description is as above. It counts as cell-based. The following applies: clavulanate 2:1, tazobactam 4 μg/mL.
Data set [7] concerns Klebsiella oxytoca isolates. Described as above. In kind it is cell-based. The note with it: clavulanate 2:1, tazobactam 4 μg/mL.
Data set [8] relates to Citrobacter freundii isolates. The data set is described as above. In kind it is cell-based. The note with it: clavulanate 2:1, tazobactam 4 μg/mL.
For data set [9], the system named is beta-lactamase producing E. coli (CTX-M-55; CTX-M-15, TEM-OSBL). As to the kind of experiment: microbe, parasite or virus in culture. In kind it is cell-based. The following applies: Escherichia coli.
For data set [10] the following is noted: plasma; cited from earlier work.
The nature of the next data set: clinical. The note with it: human, in vivo. Here is the method: The twice daily divided dose of study drug was administered approximately 12 hours apart. All subjects randomized to placebo received placebo oral capsules that were identical to study drug capsules and given according to the same dosing schedule and same quantity of capsules as subjects randomized to receive ceftibuten and clavulanate concurrently. All SDs, as well as the first daily dose of the MD period on […] were given while the subject was fasted. […] In addition, blood samples for assessment of trough (pre-dose) concentrations were collected on day 7, day 8, day 9, and alternate days thereafter through study day 17. […] Peak concentration (Cmax), time at which Cmax was observed (Tmax), area under the concentration-time curve to infinity (AUCinf), percent coefficient of variation (% CV), elimination half-life (T1/2), apparent total clearance of the drug from plasma after oral administration (CL/F), and apparent volume of distribution during terminal phase after non-intravenous administration (Vz/F) were determined. […] Similar to above, six subjects were randomized to receive active drug and two were randomized to receive placebo. […] Safety, tolerability and PK were assessed as described above.

Where [11] appears, read: Escherichia coli, E. coli (n = 124), ESBL-phenotype, read-out: MIC90.
[12] abbreviates: E. coli (n = 124), ESBL-phenotype.

≈ marks a conversion by molar mass, not a printed value. Like-named read-outs stand apart in the source and are kept apart here.

Regarding `O=C1CN(/N=C/c2ccc([N+](=O)[O-])o2)C(=O)N1` [Nitrofurantoin], in [1], the MIC50 is 16 µg/mL (≈ 67.2 µM) and the MIC90 worked out at 256 µg/mL (≈ 1070 µM).

As for `NCC[C@H](O)C(=O)N[C@@H]1C[C@H](N)[C@@H](O[C@H]2O[C@H](CN)[C@@H](O)[C@H](O)[C@H]2O)[C@H](O)[C@H]1O[C@H]1O[C@H](CO)[C@@H](O)[C@H](N)[C@H]1O` [Amikacin], the MIC90 in [2] (setting [11]) is 8 µg/mL (≈ 13.7 µM).

In the case of Gentamicin, the MIC90 in data set [2] (setting [12]) is above 8 µg/mL.

As to `C[C@]1(Cn2ccnn2)[C@H](C(=O)O)N2C(=O)C[C@H]2S1(=O)=O` [Tazobactam, tazobactam], the MIC is above 64 µg/mL in data set [3] (AEAE1027 (CTX-M-14)); above 64 µg/mL in data set [3] (AEAE1029 (CTX-M-15)); above 64 µg/mL in data set [4] (AKPN1159 (SHV-12)); above 64 µg/mL in data set [4] (AKPN1161 (SHV-7)); above 64 µg/mL in data set [4] (AKPN1162 (CTX-M-15, SHV-12)); above 64 µg/mL in data set [4] (AKPN1166 (CTX-M-14, SHV-12)). Also, the MIC in data set [4] (AKPN1167 (SHV-2)), in data set [5] (AECL1065 (CTX-M-15)), in data set [5] (AECL1067 (CTX-M-3)), in data set [6] (AECO001 (no ESBL)), in data set [6] (AECO1078 (CTX-M-15)) and in [6] (AECO1147 (CTX-M-15)) was above 64 µg/mL each time. The MIC in [6] (AECO1157 (CTX-M-15, TEM-OSBL)) was above 64 µg/mL; in data set [6] (AECO1159 (CTX-M-15)) it was above 64 µg/mL; in data set [6] (AECO1169 (CTX-M-1, TEM-OSBL)), above 64 µg/mL; in data set [6] (AECO1172 (CTX-M-14)), above 64 µg/mL; in data set [7] (AKOX1005 (SHV-2, TEM-1, DHA-1)) it was above 64 µg/mL; in data set [7] (AKOX1009 (CTX-M-15)) it was above 64 µg/mL. Also, the MIC was above 64 µg/mL in data set [8] (ACFR1034 (CTX-M-15, TEM-OSBL)) and above 64 µg/mL in [8] (ACFR1035 (CTX-M-3, TEM-OSBL)).

As to `O=C(O)[C@H]1/C(=C/CO)O[C@@H]2CC(=O)N21` [Clavulanate, clavulanic acid], the MIC is 32 µg/mL in data set [3] (AEAE1027 (CTX-M-14)); 32 µg/mL in data set [3] (AEAE1029 (CTX-M-15)); above 32 µg/mL in [9]; 32 µg/mL in data set [4] (AKPN1159 (SHV-12)); 16 µg/mL in [4] (AKPN1161 (SHV-7)); 32 µg/mL in data set [4] (AKPN1162 (CTX-M-15, SHV-12)). Further, the MIC worked out at 32 µg/mL in [4] (AKPN1166 (CTX-M-14, SHV-12)); 16 µg/mL in [4] (AKPN1167 (SHV-2)); 64 µg/mL in [5] (AECL1065 (CTX-M-15)); 64 µg/mL in data set [5] (AECL1067 (CTX-M-3)); 32 µg/mL in data set [6] (AECO001 (no ESBL)); 32 µg/mL in [6] (AECO1078 (CTX-M-15)). Also, the MIC in [6] (AECO1147 (CTX-M-15)) turned out to be 32 µg/mL; in [6] (AECO1157 (CTX-M-15, TEM-OSBL)) it was 32 µg/mL; in data set [6] (AECO1159 (CTX-M-15)) it was 32 µg/mL; in data set [6] (AECO1169 (CTX-M-1, TEM-OSBL)), 32 µg/mL; in data set [6] (AECO1172 (CTX-M-14)), 32 µg/mL; in data set [7] (AKOX1005 (SHV-2, TEM-1, DHA-1)), 32 µg/mL. In addition, the MIC came out at 32 µg/mL in [7] (AKOX1009 (CTX-M-15)); 32 µg/mL in data set [8] (ACFR1034 (CTX-M-15, TEM-OSBL)); 32 µg/mL in data set [8] (ACFR1035 (CTX-M-3, TEM-OSBL)). For the same compound, the Elimination half-life entry in data set [10] is given as “approximately 1 h”. Besides, the Tmax in “clinical” (po, 125 mg, Tmax) was determined as 60 min. The same compound had a half-life in the data set “clinical” (po, 125 mg, T½) of 46.5 min.

Take `C[C@@H](O)[C@H]1C(=O)N2C(C(=O)O)=C(S[C@@H]3CN[C@H](CNS(N)(=O)=O)C3)[C@H](C)[C@H]12` [Doripenem]: in data set [2] (setting [11]), the MIC90 is at most 0.06 µg/mL.

Take `C[C@H]1[C@H](NC(=O)/C(=N\OC(C)(C)C(=O)O)c2csc(N)n2)C(=O)N1S(=O)(=O)O` [Aztreonam]: in [1], the MIC50 was above 16 µg/mL, the “EUCAST % I” value is given as 13.9% and the MIC90 is above 16 µg/mL. Moreover, the MIC90 in data set [2] (setting [11]) was above 16 µg/mL.

With `C[C@@H](O)[C@H]1C(=O)N2C(C(=O)O)=C(SCCN=CN)C[C@H]12` [Imipenem], in [1], the MIC50 was at most 0.12 µg/mL, the “EUCAST % I” value worked out at 2.7% and the MIC90 was found to be 0.5 µg/mL (≈ 1.67 µM). The MIC90 in [2] (setting [11]) came to 0.25 µg/mL (≈ 0.835 µM).

In the case of `CO/N=C(\C(=O)N[C@@H]1C(=O)N2C(C(=O)O)=C(CSc3nc(=O)c(=O)[nH]n3C)CS[C@H]12)c1csc(N)n1` [Ceftriaxone], in data set [1], the MIC50 was above 8 µg/mL, the “EUCAST % I” value was determined as 1.2% and the MIC90 is above 8 µg/mL. Moreover, the “MIC90 relative to CLSI/EUCAST breakpoint for susceptibility” value in data set [2] (E. coli isolates with ESBL-producing phenotype) is “above the breakpoint for susceptibility”. Further, the MIC90 in data set [2] (setting [11]) is above 8 µg/mL.

`CN(C)c1cc(NC(=O)CNC(C)(C)C)c(O)c2c1C[C@H]1C[C@H]3[C@H](N(C)C)C(O)=C(C(N)=O)C(=O)[C@@]3(O)C(O)=C1C2=O` [Tigecycline] came in with an MIC90 in data set [2] (Escherichia coli) of 0.25 µg/mL (≈ 0.427 µM).

In the case of `NCC(=O)CCO` [amino ketone metabolite of clavulanate], the “% of parent exposure” value in the data set “clinical” is “approximately 8.5%”.

For the compound `NC[C@H]1O[C@H](O[C@H]2[C@H](O)[C@@H](O[C@H]3O[C@H](CO)[C@@H](O)[C@H](N)[C@H]3O)[C@H](N)C[C@@H]2N)[C@H](N)C[C@@H]1O` [Tobramycin], the MIC90 in [2] (setting [11]) was above 8 µg/mL.

In the case of Colistin, the MIC90 in [2] (setting [12]) came to 0.25 µg/mL.

As for `CC(C)(O/N=C(\C(=O)N[C@@H]1C(=O)N2C(C(=O)[O-])=C(C[n+]3ccccc3)CS[C@H]12)c1csc(N)n1)C(=O)O` [Ceftazidime], in data set [1], the MIC50 turned out to be 16 µg/mL (≈ 29.3 µM), the “EUCAST % I” value is given as 16.2% and the MIC90 was above 32 µg/mL. The MIC90 in [2] (setting [11]) is above 32 µg/mL.

As for `C[C@H]1COc2c(N3CCN(C)CC3)c(F)cc3c(=O)c(C(=O)O)cn1c23` [Levofloxacin], in data set [2] (setting [11]), the MIC90 was above 4 µg/mL.

Regarding `CC1(C)S[C@@H]2[C@H](/N=C/N3CCCCCC3)C(=O)N2[C@H]1C(=O)O` [Mecillinam], in data set [1], the MIC50 is 2 µg/mL (≈ 6.15 µM) and the MIC90 is above 32 µg/mL.

Broadly, the MIC50 is an inhibitory concentration at the 50% level, which refers to growth in some studies and to a panel of isolates in others. Read a low MIC50 as greater potency. As usually defined, the MIC90 is an inhibitory concentration at the 90% level, which refers to growth in some studies and to a panel of isolates in others. For orientation: Tmax means the time from dosing to the highest level. As usually defined, the half-life is the time in which the quantity being followed falls by half. Read a low half-life as rapid decline.

These data come from patent US20180015100A1, “COMBINATION PRODUCTS FOR THE TREATMENT OF BACTERIAL INFECTIONS AND METHODS OF PRODUCING OR DOSING OF SAME” (priority 2016, published 2018).
